From paper PMC8786148, “The effects of magainin 2-derived and rationally designed antimicrobial peptides on Mycoplasma pneumoniae” (PLoS ONE, 2022)
Marks after values point to notes of the source that are not given here.

How the values were obtained:
[1] = system: M. pneumoniae strains FH, M52, Mac, Bru, and M129-B7; assay: Propidium iodide (PI) uptake assay, membrane disruption; assay type: cell-based, Mycoplasma pneumoniae; settings: 10 μmol/L AMP, PI 5 μg/mL in PBS, triplicate
Protocol: We performed the PI uptake assays based on the previously described method with modification for M. pneumoniae. M. pneumoniae strains FH, M52, Mac, Bru, and M129-B7 were cultured as described above. Briefly, the 90 mL culture was done in PPLO-based medium for 6 days to observe the medium color change from red to yellow. The mycoplasma in the culture medium was centrifuged at 11,740g for 30 min at 4°C, and the precipitation was suspended in 20 mL phosphate buffered saline (PBS) by passing through a 60 mm-length 25-gauge needle (Top Corporation, Tokyo, Japan) three times. The suspension was centrifuged again at 11,740g for 30 min at 4°C, and 2.25 mL PBS was added to the precipitation. The 2× mycoplasma suspension was prepared by passing through a 60 mm-length 25-gauge needle five times. When using heat-killed M. pneumoniae (HKMp), the 2× suspension was heated at 95°C for 10 min. The 2× PI assay reaction mix based on PBS containing 20 μmol/L of an antimicrobial peptide or saline, and 10 μg/mL PI (Dojindo, Tokyo, Japan). Each assay was performed with a 96-well black flat-bottomed plate (PerkinElmer, Waltham, MA, USA) using a final cell volume of 100 μL prepared by mixing 2× mycoplasma suspension and 2× PI assay reaction mix at 1:1 in volume ratio. The intercalation fluorescence of PI was measured by using an Infinite 200 Pro F Plex microplate reader (Tecan, Zürich, Switzerland) every 2 min, with an excitation filter at 535 nm (half width: 25 nm) and an emission filter at 620 nm (half width: 20 nm). The averages and standard deviations of the fluorescent intensities was calculated, and normalised by an average fluorescence between 10 and 20 min of HKMp as 100% relative fluorescence, and by a minimum average fluorescence between 0 and 20 min of whole data as 0% relative fluorescence.

Escherichia coli = system: Escherichia coli; design: method as in PMID 28789896, PMID 31303986, PMID 33369262; settings: previously reported; cited from earlier work
Mycoplasma pneumoniae FH [2] = assay: Biofilm assay (crystal violet, absorbance at 550 nm), strain FH; settings: initial 10^5 CFU/mL; for Effect in the biofilm assay: 0% CO2, up to 30 μmol/L; for Concentration with statistically significant effect in the biofilm assay: 0% CO2, 6-8 days at 37°C, p < 0.005, Shirley-Williams test
[3] = previously reported; cited from earlier work
Pseudomonas aeruginosa = system: Pseudomonas aeruginosa; design: method as in PMID 28789896, PMID 31303986, PMID 33369262; settings: previously reported; cited from earlier work
Staphylococcus aureus = system: Staphylococcus aureus; design: method as in PMID 28789896, PMID 31303986, PMID 33369262; settings: previously reported; cited from earlier work
[4] = system: Staphylococcus epidermidis; design: method as in PMID 28789896, PMID 31303986, PMID 33369262; settings: previously reported; cited from earlier work
Mycoplasma pneumoniae FH [5] = assay: Killing assay, strain FH; settings: 30 μmol/L AMP, 3 days; for Killing assay result compared with saline: Welch's t test, p < 0.005; for Cell numbers (CFU/mL) after treatment with antimicrobial peptides, killing assay: initial 10^6 CFU/mL, triplicate, mean, saline 3.59×10^6
Mycoplasma pneumoniae FH [6] = assay: Colorimetric assay (absorbance at 560 nm), strain FH; settings: initial 10^5 CFU/mL, 0% CO2, up to 30 μmol/L
[7] = system: Mycoplasma pneumoniae Mac; assay: Colorimetric and biofilm assays, strain Mac; settings: biofilm assay, p < 0.005
[8] = system: Mycoplasma pneumoniae Mac; assay: Killing assay, strain Mac; settings: AMP 30 μmol/L, 3 days, initial 10^6 CFU/mL, triplicate, mean, saline 4.19×10^6
[9] = system: Mycoplasma pneumoniae M52; assay: Killing assay, strain M52; settings: AMP 30 μmol/L, 3 days, initial 10^6 CFU/mL, triplicate, mean, saline 3.62×10^6
[10] = system: Mycoplasma pneumoniae M52; assay: Colorimetric and biofilm assays, strain M52; settings: up to 30 μmol/L, Shirley-Williams test
[11] = system: Mycoplasma pneumoniae Bru; assay: Colorimetric and biofilm assays, strain Bru; settings: biofilm assay, p < 0.005
[12] = system: Mycoplasma pneumoniae M129-B7; assay: Colorimetric and biofilm assays, strain M129-B7; assay type: cell-based; settings: strain M129-B7; biofilm assay; p < 0.005
[13] = system: Mycoplasma pneumoniae Bru; assay: Killing assay, strain Bru; settings: AMP 30 μmol/L, 3 days, initial 10^6 CFU/mL, triplicate, mean, saline 3.48×10^6
[14] = system: Mycoplasma pneumoniae M129-B7; assay: Killing assay, strain M129-B7; settings: AMP 30 μmol/L, 3 days, initial 10^6 CFU/mL, triplicate, mean, saline 3.79×10^6
[15] = five strains, read every 2 min up to 20 min
[16] = strains FH, M129-B7, and M52, up to 20 min

Substance | PI fluorescence compared with live Mp without peptide [1, 15] | MIC, Gram-negative, E. c. (Escherichia coli) | Effect in the biofilm assay (Mycoplasma pneumoniae FH [2]) | Haemolysis (concentration with haemolytic effect) [3] | MIC, Gram-negative, P. a. (Pseudomonas aeruginosa) | MIC, Gram-positive, S. a. (Staphylococcus aureus) | MIC, Gram-positive, S. e [4] | Killing assay result compared with saline (Mycoplasma pneumoniae FH [5]) | Cell numbers (CFU/mL) after treatment with antimicrobial peptides, killing assay (Mycoplasma pneumoniae FH [5]) | Effect in the colorimetric assay (Mycoplasma pneumoniae FH [6]) | Concentration with statistically significant effect in the biofilm assay (Mycoplasma pneumoniae FH [2]) | PI fluorescence compared with live Mp without peptide [1, 16] | Concentration with statistically significant effect in the biofilm assay [7] | Titre (CFU/mL), killing assay [8] | Titre (CFU/mL), killing assay [9] | Effect in the biofilm assay [10] | Concentration with statistically significant effect in the biofilm assay [11] | Concentration with statistically significant effect in the biofilm assay [12] | Titre (CFU/mL), killing assay [13] | Titre (CFU/mL), killing assay [14]
H-GIGKFLHSAKKFGKAFV-NH2 [Mag2-17base] | fluorescence of live Mp without any peptides were higher | 3.13 µM | no difference | >100 µmol/L | 3.13 µM | 50 µM | 12.5 µM | limited influence on the growth | 4.86×10^6 CFU/mL |  |  |  |  |  |  |  |  |  |  | 
H-GIGKFLHSAKKFGKAFVGEIMNS-NH2 [Mag2, magainin 2] | fluorescence of live Mp without any peptides were higher | 3.13 µM |  |  | 12.5 µM | 100 µM | 25 µM | limited influence on the growth | 4.06×10^6 CFU/mL | no difference | 30 µmol/L |  |  |  |  |  |  |  |  | 
H-GIGKFLHSUKKFGKUFV-NH2 [17base-Aib] | slight fluorescent shift | 3.13 µM | no difference | >100 µmol/L | 1.56 µM | 12.5 µM | 3.13 µM | limited influence on the growth | 3.75×10^6 CFU/mL |  |  | fluorescence of live Mp without any peptides were higher |  |  |  |  |  |  |  | 
H-GIGKFLHSZKKFGKZFV-NH2 [17base-Ac6c] | the fluorescence arose | 3.13 µM |  | 3 µmol/L | 6.25 µM | 3.13 µM | 3.13 µM | significant difference | 1.11×10^6 CFU/mL |  | 30 µmol/L |  |  |  |  |  |  |  |  | 
H-GIKKFLKSZKKFVKZFK-NH2 [17base-Hybrid] | the fluorescence arose | 3.13 µM |  |  | 3.13 µM | 3.13 µM | 1.56 µM | significant difference | 3.50×10^5 CFU/mL |  | 8 µmol/L |  | ≤ 30 µmol/L | 5.80×10^4 ^b CFU/mL | 1.16×10^5 ^b CFU/mL | slight drop of biofilm production | ≤ 30 µmol/L | ≤ 30 µmol/L | 1.46×10^5 ^b CFU/mL | 2.21×10^5 ^b CFU/mL
H-KKKLAKLKLGAKLKLKGKLGA-NH2 [Random] | fluorescence of live Mp without any peptides were higher | 12.5 µM | no difference |  | 3.13 µM | 100 µM | 6.25 µM | limited influence on the growth | 4.93×10^6 CFU/mL |  |  |  |  |  |  |  |  |  |  | 
H-KLLKKAGKLLKKAGKLLKKAG-NH2 [Stripe] |  | 3.13 µM | no difference |  | 1.56 µM | 12.5 µM | 1.56 µM | limited influence on the growth | 3.71×10^6 CFU/mL |  |  | fluorescence of live Mp without any peptides were higher |  |  |  |  |  |  |  | 
